Laboratory results as given in patent US9217014B2, “Antifungal agents and uses thereof” (Cidara Therapeutics, Inc., priority 2011, dated 2015).
Where two headings read alike, the source gives them in different places.

Legend:
C. albicans R303 = assay: mouse candidiasis infection model, IP administration, kidney fungal burden; format: in vivo; details: for overall performance in reducing C. albicans CFUs in the kidneys of the mice: conclusion over all runs
Procedure, shortened: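 Female CD-1 mice rendered neutropenic with IP cyclophosphamide 150 mg/kg at days −4 and −1. Mice infected IV via tail vein with C. albicans R303, then given test compounds IP 2 h post-infection. Kidney fungal burden determined as CFU by plate counts; values are means of four mice.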

[1] = Solubility in non-aqueous solvents; format: physicochemical; details: organic solvent or mixture, compound 1 as acetate salt
Experimental: The solubility of compound 1 (acetate salt) was also measured in non-aqueous solvents to assess this compound's suitability for formulation in non-aqueous carriers.

[2] = Pharmacokinetics in beagle dogs, intravenous; format: in vivo; details: for CI / half-life / Vd: 1.4 mg/kg intravenous slow bolus, mean ± SEM, n = 4 beagle dogs; for half-life / Vd: dog; for half-life: read-out: T ½ (converted); for Vd: read-out: Vz
Experimental: The test articles were administered to beagle dogs weighing approximately 6-10 kg. Each test article was dosed at 1.4 mg/kg in aqueous saline (with or without 0.5% Tween) over course of 1-10 minutes. […] The dogs were fasted at least 12 hours prior to each dosing and offered food after the 4-hour blood sample was taken; water was withheld for 1 hour prior to and 4 hours following each dosing event. The dose for each animal was based on its most recent body weight. The test article was injected intravenously via a catheter placed in the cephalic vein as a slow bolus.
Blood was collected via the jugular vein. All blood samples (˜1 mL each) were collected into K3EDTA tubes. Following blood collection, the samples were immediately inverted several times and were held on wet ice pending centrifugation. The samples were centrifuged within ˜30 minutes of collection under refrigeration (˜5° C. for ˜10 minutes at ˜2000 g) to obtain plasma. The plasma was frozen immediately on dry ice after separation. The plasma samples were stored at approximately −70° C. until analysis.
Plasma (100 μL) was precipitated with 400 μL of 0.1% formic acid in acetonitrile containing the internal standard (100 ng/mL pneumocandin). The samples were then capped and vortexed for about 30 seconds followed by centrifugation at 14,000 rpm at room temperature for 10 minutes. Following centrifugation 200 μL of supernatant was transferred to plastic autosampler vials containing 200 μL of 0.1% formic acid in water and vortexed. Samples were then analyzed by LCMSMS.
All pharmacokinetic calculations were performed using WinNonlin version 4.1 (Pharsight Corp) by noncompartmental analysis.

[3] = Solubility in aqueous buffers of varying pH; format: physicochemical; details: for solubility: ambient temperature, compound 1 as acetate salt
Experimental: The solubility of compound 1 (acetate salt) was measured in aqueous buffers of varying pH to assess this compound's suitability for formulation in an aqueous carrier for administration by injection (e.g., intravenous or intramuscular injection).

[4] = Candida albicans, R303, ip, 24 h, Fifth run, IP 0.5 mg/kg, read-out: Difference from 24-h control
[5] = Candida albicans, R303, ip, 24 h, Fifth run, IP 1.5 mg/kg, read-out: Difference from 24-h control
[6] = Candida albicans, R303, ip, 24 h, Fifth run, IP 4.5 mg/kg, read-out: Difference from 24-h control
[7] = Fifth run, IP 0.5 mg/kg, kidneys 24 h after infection
[8] = Fifth run, IP 1.5 mg/kg, kidneys 24 h after infection
[9] = Fifth run, IP 4.5 mg/kg, kidneys 24 h after infection
[10] = beagle dogs, 1.4 mg/kg intravenous

CCCCCOc1ccc(-c2ccc(-c3ccc(C(=O)N[C@H]4C[C@@H](O)C(OCC[N+](C)(C)C)NC(=O)C5[C@@H](O)[C@@H](C)CN5C(=O)C([C@@H](C)O)NC(=O)C([C@H](O)[C@@H](O)c5ccc(O)cc5)NC(=O)C5C[C@@H](O)CN5C(=O)C([C@@H](C)O)NC4=O)cc3)cc2)cc1 (stereo partly drawn) [compound 1]
log reduction at 0.5 mg/kg (C. albicans R303; [4]): 1.47 | log reduction at 1.5 mg/kg (C. albicans R303; [5]): 3.58 | log reduction at 4.5 mg/kg (C. albicans R303; [6]): 4.81 | log reduction at 5 mg/kg (C. albicans R303; Candida albicans, R303, ip, 24 h, First run, IP 5 mg/kg, read-out: Difference from 24-h control): 4.8 | log reduction at 0.5 mg/kg (C. albicans R303; Candida albicans, R303, ip, 24 h, Second run, IP 0.5 mg/kg, read-out: Difference from 24-h control): 2.08 | log reduction at 1.5 mg/kg (C. albicans R303; Candida albicans, R303, ip, 24 h, Second run, IP 1.5 mg/kg, read-out: Difference from 24-h control): 3.05 | log reduction at 4.5 mg/kg (C. albicans R303; Candida albicans, R303, ip, 24 h, Second run, IP 4.5 mg/kg, read-out: Difference from 24-h control): 3.9 | Mean log10 CFU/kidneys (±SEM) (C. albicans R303; [7]): 3.67 ± 0.07 log10 CFU/kidneys | Mean log10 CFU/kidneys (±SEM) (C. albicans R303; [8]): 1.56 ± 0.15 log10 CFU/kidneys | Mean log10 CFU/kidneys (±SEM) (C. albicans R303; [9]): 0.33 ± 0.33 log10 CFU/kidneys | Mean log10 CFU/kidneys (±SD) (C. albicans R303; First run, IP 5 mg/kg, neutropenic mice, kidneys 24 h after infection): 0.40 ± 0.80 log10 CFU/kidneys | Mean log10 CFU/kidneys (±SEM) (C. albicans R303; Second run, IP 0.5 mg/kg, kidneys 24 h after infection): 2.80 ± 0.11 log10 CFU/kidneys | Mean log10 CFU/kidneys (±SEM) (C. albicans R303; Second run, IP 1.5 mg/kg, kidneys 24 h after infection): 1.83 ± 0.14 log10 CFU/kidneys | Mean log10 CFU/kidneys (±SEM) (C. albicans R303; Second run, IP 4.5 mg/kg, kidneys 24 h after infection): 0.98 ± 0.33 log10 CFU/kidneys | overall performance in reducing C. albicans CFUs in the kidneys of the mice (C. albicans R303): performed strongly | solubility ([1]; Ethanol (EtOH)): > 13.7 mg/mL | solubility ([1]; Glycerol): > 19.4 mg/mL | solubility ([1]; PEG400): > 34.1 mg/mL | solubility ([1]; Propylene glycol(PG)): > 18.4 mg/mL | CI [2]: 0.301 ± 0.0243 mL/min/kg | circulating half-life (in words) [2, 10]: surprisingly long circulating half-life | volume of distribution (in words) [2, 10]: surprisingly large volume of distribution | half-life ([2]; beagle, in vivo, iv, 1.4 mg/kg): 53.1 ± 3.93 h | Vd ([2]; in vivo): 1.36 ± 0.0619 L/kg | solubility ([3]; aqueous buffer, pH 3 (0.01M formate buffer)): > 15 mg/mL | solubility ([3]; aqueous buffer, pH 4.6 (0.1M acetate buffer)): > 15 mg/mL | solubility ([3]; aqueous buffer, pH 5.6 (0.1M acetate buffer)): > 15 mg/mL | solubility ([3]; aqueous buffer, pH 7.4 (0.1M phosphate buffer)): 0.05 mg/mL | solubility ([3]; aqueous buffer, pH 8.5 (0.01M TRIS buffer)): > 15 mg/mL | aqueous solubility compared with anidulafungin (in words) ([3]; over a broad pH range): dramatically greater aqueous solubility than anidulafungin | solubility ([3]; saline or isotonic, 0.9% saline): 4.6 mg/mL | solubility ([3]; simulated gastric fluid, pH 1 (0.1M HCl)): > 15 mg/mL

CCCCCOc1ccc(-c2ccc(-c3ccc(C(=O)N[C@H]4C[C@@H](O)C(NCC[N+](C)(C)C)NC(=O)C5[C@@H](O)[C@@H](C)CN5C(=O)C([C@@H](C)O)NC(=O)C([C@H](O)[C@@H](O)c5ccc(O)cc5)NC(=O)C5C[C@@H](O)CC5C(=O)C([C@@H](C)O)NC4=O)cc3)cc2)cc1 (stereo partly drawn) [compound 16]
log reduction at 0.5 mg/kg (C. albicans R303; [4]): 3.22 | log reduction at 1.5 mg/kg (C. albicans R303; [5]): 3.74 | log reduction at 4.5 mg/kg (C. albicans R303; [6]): 4.08 | Mean log10 CFU/kidneys (±SEM) (C. albicans R303; [7]): 1.91 ± 0.34 log10 CFU/kidneys | Mean log10 CFU/kidneys (±SEM) (C. albicans R303; [8]): 1.39 ± 0.16 log10 CFU/kidneys | Mean log10 CFU/kidneys (±SEM) (C. albicans R303; [9]): 1.05 ± 0.36 log10 CFU/kidneys | overall performance in reducing C. albicans CFUs in the kidneys of the mice (C. albicans R303): performed strongly | CI [2]: 0.365 ± 0.014 mL/min/kg | half-life ([2]; plasma): 27.6 ± 1.11 h | Vd ([2]; plasma): 0.874 ± 0.0639 L/kg
